In the assay the test system is Acinetobacter baumannii ATCC17961. Description: Antimicrobial susceptibility testing: 90% growth inhibitory concentration (IC90) determination in Iso-Sensitest broth, OD600 growth. The assay is classed as cell-based. In short, it runs like this: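 Twofold compound dilutions (e.g. 50 to 0.097 μM final) in Iso-Sensitest broth with ~5×10^(5) CFU/ml, 35±2 °C. OD600 read every 20 min over 16 h; IC90 from growth inhibition during logarithmic phase.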

Where [1] appears, read: Acinetobacter baumannii, ATCC17961, 16 h, strain ATCC 17961, OD600 growth over 16 h, read-out: A. baumannii ATCC 17961 IC90.
[2] abbreviates: Acinetobacter baumannii, ATCC17961, 16 h, read-out: A. baumannii ATCC 17961 IC90 (uM), strain ATCC 17961, OD600 growth over 16 h.

Structures can show the parent of a compound that is named as a salt. Where two headings read alike, the source gives them in different places.

For `O=C(NC1CCN(C(=O)c2ccc(Nc3nccn4c(-c5c[nH]nc5C(F)(F)F)cnc34)cc2Cl)CC1)[C@@H]1C[C@@H](O)CN1` [Example 154, (2S,4R)-N-[1-[2-chloro-4-[[3-[3-(trifluoromethyl)-1H-pyrazol-4-yl]imidazo[1,2-a]pyrazin-8-yl]amino]benzoyl]piperidin-4-yl]-4-hydroxypyrrolidine-2-carboxamide], the 90% effect concentration (IC90) under setting [1] came to 0.391 µM. On the same count and under the same terms, then `C#CCn1cc(-c2cnc3c(Nc4ccc(C(=O)NCC)c(CC)c4)nccn23)c(C(F)(F)F)n1` [Example 112, N,2-diethyl-4-[[3-[1-prop-2-ynyl-3-(trifluoromethyl)pyrazol-4-yl]imidazo[1,2-a]pyrazin-8-yl]amino]benzamide], with 0.231 µM. Same read-out and setting: for `NCCNC(=O)CNC(=O)c1ccc(Nc2nccn3c(-c4cn(CCF)nc4C(F)(F)F)cnc23)cc1Cl` [Example 8, N-[2-(2-aminoethylamino)-2-oxoethyl]-2-chloro-4-[[3-[1-(2-fluoroethyl)-3-(trifluoromethyl)pyrazol-4-yl]imidazo[1,2-a]pyrazin-8-yl]amino]benzamide formate] the value was 0.484 µM; for `C#CCn1cc(-c2cnc3c(Nc4ccc(C(=O)N5CCN(C(=O)[C@H](C)N)CC5)c(CC)c4)nccn23)c(C(F)F)n1` [Example 694, (S)-2-amino-1-(4-(4-((3-(3-(difluoromethyl)-1-(prop-2-yn-1-yl)-1H-pyrazol-4-yl)imidazo[1,2-a]pyrazin-8-yl)amino)-2-ethylbenzoyl)piperazin-1-yl)propan-1-one], 0.358 µM. On the same count and under the same terms, then `CCc1cc(Nc2nccn3c(-c4cn(CCF)nc4C(F)(F)F)cnc23)ccc1C(=O)NCC1CC1N` (stereo not drawn) [Example 640, N-((2-aminocyclopropyl)methyl)-2-ethyl-4-((3-(1-(2-fluoroethyl)-3-(trifluoromethyl)-1H-pyrazol-4-yl)imidazo[1,2-a]pyrazin-8-yl)amino) benzamide formate], with 0.229 µM.

On to `N[C@@H]1CCN(C(=O)N2CCN(C(=O)c3ccc(Nc4nccn5c(-c6c[nH]nc6C(F)(F)F)cnc45)cc3Cl)CC2)C1` [Example 326, [4-[(3R)-3-aminopyrrolidine-1-carbonyl]piperazin-1-yl]-[2-chloro-4-[[3-[3-(trifluoromethyl)-1H-pyrazol-4-yl]imidazo[1,2-a]pyrazin-8-yl]amino]phenyl]methanone formate], for which the IC90 under setting [2] amounted to 0.135 µM.

As for `O=C(c1ccc(Nc2nccn3c(-c4c[nH]nc4C(F)(F)F)cnc23)cc1Cl)N1CCN(C(=O)[C@H]2CCNC2)CC1` [Example 208, [2-chloro-4-[[3-[3-(trifluoromethyl)-1H-pyrazol-4-yl]imidazo[1,2-a]pyrazin-8-yl]amino]phenyl]-[4-[(3S)-pyrrolidine-3-carbonyl]piperazin-1-yl]methanone], the 90% effect concentration (IC90) under setting [1] is 0.232 µM. In the case of `N[C@@H]1CN[C@H](C(=O)N2CCN(C(=O)c3ccc(Nc4nccn5c(-c6c[nH]nc6C(F)(F)F)cnc45)cc3Cl)CC2)C1` [Example 295, [4-[(2S,4S)-4-aminopyrrolidine-2-carbonyl]piperazin-1-yl]-[2-chloro-4-[[3-[3-(trifluoromethyl)-1H-pyrazol-4-yl]imidazo[1,2-a]pyrazin-8-yl]amino]phenyl] methanone formate], the 90% effect concentration (IC90) under setting [2] came to 0.473 µM. On to `O=C(NC1CN(C(=O)c2ccc(Nc3nccn4c(-c5c[nH]nc5C(F)(F)F)cnc34)cc2Cl)C1)N[C@@H]1CCNC1` [Example 168, 1-[1-[2-chloro-4-[[3-[3-(trifluoromethyl)-1H-pyrazol-4-yl]imidazo[1,2-a]pyrazin-8-yl]amino]benzoyl]azetidin-3-yl]-3-[(3R)-pyrrolidin-3-yl]urea], for which, under setting [1], the IC90 is 0.369 µM.

`N#CCn1cc(-c2cnc3c(Nc4ccc(C(=O)NCC(=O)N[C@@H]5CCNC5)c(Cl)c4)nccn23)c(C(F)(F)F)n1` [Example 723, 2-chloro-4-[[3-[1-(cyanomethyl)-3-(trifluoromethyl)pyrazol-4-yl]imidazo[1,2-a]pyrazin-8-yl]amino]-N-[2-oxo-2-[[(3R)-pyrrolidin-3-yl]amino]ethyl]benzamide formate]: the IC90 under setting [2] amounted to 0.459 µM. In the case of `CCc1cc(Nc2nccn3c(-c4cn(CC#N)nc4C(F)(F)F)cnc23)ccc1C(=O)NCCNC(=O)N1CC[C@H](N)C1` [Example 577, (S)-3-amino-N-(2-(4-((3-(1-(cyanomethyl)-3-(trifluoromethyl)-1H-pyrazol-4-yl)imidazo[1,2-a]pyrazin-8-yl)amino)-2-ethylbenzamido)ethyl) pyrrolidine-1-carboxamide formate], the IC90 under setting [1] came out at 0.395 µM.

In the case of `C[C@@H](NC(=O)c1ccc(Nc2nccn3c(-c4c[nH]nc4C(F)(F)F)cnc23)cc1Cl)C(=O)N1CCC(N)CC1` [Example 90, N-[(2R)-1-(4-aminopiperidin-1-yl)-1-oxopropan-2-yl]-2-chloro-4-[[3-[3-(trifluoromethyl)-1H-pyrazol-4-yl]imidazo[1,2-a]pyrazin-8-yl]amino]benzamide formate], the IC90 under setting [2] stood at 0.643 µM. In the case of `NCCOCCNC(=O)c1ccc(Nc2nccn3c(-c4cn(CC(F)F)nc4C(F)(F)F)cnc23)cc1F` [Example 809, N-(2-(2-aminoethoxy)ethyl)-4-((3-(1-(2,2-difluoroethyl)-3-(trifluoromethyl)-1H-pyrazol-4-yl)imidazo[1,2-a]pyrazin-8-yl)amino)-2-fluorobenzamidei hydrochloride], the IC90 under setting [2] is 0.17 µM. For `O=C(c1ccc(Nc2nccn3c(-c4c[nH]nc4C(F)(F)F)cnc23)cc1Cl)N1CCN(C(=O)[C@H]2[C@@H]3CNC[C@@H]32)CC1` [Example 516, (4-((1R,5S,6r)-3-azabicyclo[3.1.0]hexane-6-earbonyl)piperazin-1-yl) (2-chloro-4-((3-(3-(trifluoromethyl)-1H-pyrazol-4-yl)imidazo[1,2-a]pyrazin-8-yl)amino)phenyl)methanone formate], the 90% effect concentration (IC90) under setting [1] worked out at 0.14 µM.

`CCc1cc(Nc2nccn3c(-c4cn(CC#N)nc4C(F)(F)F)cnc23)ccc1C(=O)NCCOCC(C)(C)N` [Example 60, N-[2-(2-amino-2-methylpropoxy)ethyl]-4-[[3-[1-(cyanomethyl)-3-(trifluoromethyl)pyrazol-4-yl]imidazo[1,2-a]pyrazin-8-yl]amino]-2-ethylbenzamide]: the concentration for an effect of 90% (IC90) under setting [1] came to 0.23 µM. Still for that read-out and setting: then `CCc1cc(Nc2nccn3c(-c4c[nH]nc4C(F)F)cnc23)ccc1C(=O)NCCOCCN` [Example 430, N-[2-(2-aminoethoxy)ethyl]-4-[[3-[3-(difluoromethyl)-1H-pyrazol-4-yl]imidazo[1,2-a]pyrazin-8-yl]amino]-2-ethylbenzamide], with 2.14 µM. `Cc1cc(Nc2nccn3c(-c4cn(CC#N)nc4C(F)(F)F)cnc23)cc(F)c1C(=O)N[C@H](C)CNC(=O)CN` [Example 689, (R)-N-(1-(2-aminoacetamido)propan-2-yl)-4-((3-(1-(cyanomethyl)-3-(trifluoromethyl)-1H-pyrazol-4-yl)imidazo[1,2-a]pyrazin-8-yl)amino)-2-fluoro-6-methylbenzamide formate]: under setting [2], the IC90 came out at 0.351 µM. Still for that read-out and setting: for `CCc1cc(Nc2nccn3c(-c4cn(CC(F)F)nc4C(F)(F)F)cnc23)ccc1C(=O)NCC(=O)NCC1(O)CNC1` [Example 546, 4-[[3-[1-(2,2-difluoroethyl)-3-(trifluoromethyl)pyrazol-4-yl]imidazo[1,2-a]pyrazin-8-yl]amino]-2-ethyl-N-[2-[(3-hydroxyazetidin-3-yl)methylamino]-2-oxo-ethyl]benzamide formate] the value was 0.298 µM. In the case of `CCc1cc(Nc2nccn3c(-c4cn(CC5CC5)nc4C(F)(F)F)cnc23)ccc1C(=O)NCCOCCN` [Example 30, N-[2-(2-aminoethoxy)ethyl]-4-[[3-[1-(cyclopropylmethyl)-3-(trifluoromethyl)pyrazol-4-yl]imidazo[1,2-a]pyrazin-8-yl]amino]-2-ethylbenzmamide formate], under “strain ATCC 17961, OD600 growth over 16 h, read-out: A. baumannii ATCC 17961 IC90”, the IC90 was 0.159 µM. In the case of `CCc1cc(Nc2nccn3c(-c4cn(CC#N)nc4C#N)cnc23)ccc1C(=O)NCCOCCN` [Example 830, N-(2-(2-aminoethoxy)ethyl)-4-((3-(3-cyano-1-(cyanomethyl)-1H-pyrazol-4-yl)imidazo[1,2-α]pyrazin-8-yl)amino)-2-ethyl-benzamide], under setting [1], the 90% effect concentration (IC90) was determined as 0.58 µM. On the same count and under the same terms, then `NC1CCN(C(=O)c2ccc(Nc3nccn4c(-c5c[nH]nc5C(F)(F)F)cnc34)cc2Cl)CC1` [Example 318, (4-aminopiperidin-1-yl)-[2-chloro-4-[[3-[3-(trifluoromethyl)-1H-pyrazol-4-yl]imidazo[1,2-a]pyrazin-8-yl]amino]phenyl]methanone], with 0.411 µM. For `CCc1cc(Nc2nccn3c(-c4cn(CC#N)nc4C(F)(F)F)cnc23)ccc1C(=O)NCC(=O)N[C@@H]1CCNC1` [Example 757, 4-[[3-[1-(cyanomethyl)-3-(trifluoromethyl)pyrazol-4-yl]imidazo[1,2-a]pyrazin-8-yl]amino]-2-ethyl-N-[2-oxo-2-[[(3R)-pyrrolidin-3-yl]amino]ethyl]benzamide formate], under setting [2], the 90% effect concentration (IC90) is 0.689 µM.

Consider `Cc1cc(Nc2nccn3c(-c4cn(CC#N)nc4C(F)(F)F)cnc23)ccc1C(=O)NCCNC(=O)[C@@H]1C[C@@H](O)CN1` [Example 375, (2S,4R)-N-[2-[[4-[[3-[1-(cyanomethyl)-3-(trifluoromethyl)pyrazol-4-yl]imidazo[1,2-a]pyrazin-8-yl]amino]-2-methylbenzoyl]amino]ethyl]-4-hydroxypyrrolidine-2-carboxamide formate], for which the IC90 under setting [2] is 0.338 µM. Regarding `Cc1cc(Nc2nccn3c(-c4c[nH]nc4C(F)(F)F)cnc23)ccc1C(=O)N1CCN(C(=O)[C@@H]2CNCC[C@@H]2O)CC1` (racemic) [Example 468, [2-methyl-4-[[3-[3-(trifluoromethyl)-1H-pyrazol-4-yl]imidazo[1,2-a]pyrazin-8-yl]amino]phenyl]-[4-[rac-(3R,4S)-4-hydroxypiperidine-3-carbonyl]piperazin-1-yl]methanone hydrochloride], under setting [1], the concentration for an effect of 90% (IC90) was found to be 1.43 µM.

These data come from patent US20230203043A1, “NOVEL IMIDAZOPYRAZINE DERIVATIVES” (Hoffmann-La Roche Inc., priority 2020, published 2023).
